The target of this assay is truncated CRBN (319-427) (Homo sapiens (Human), UniProt Q96SW2). The assay can be described thus: Fluorescence binding assay (fluorescence quenching), affinity to E3-CEREBLON (CRBN)-ubiquitin ligase. The settings on record: ubiquitination moiety, pH 6.5. As to the method:
Fluorescence quenching end point measurements were performed in black polystyrene 384-plates on Tecan Safire monochromator reader with the following settings: excitation 280 nm; excitation bandwidth 10.0 nm; emission collection 340 nm; emission bandwidth 20.0 nm; high sensitivity flash mode; integration time 40 μS; delay 0 μm. All measurements were done in duplicates; GraphPad Prism 5.03 was used for data evaluation, curve fitting, plotting and determination of IC50 values.
Serial dilutions of each tested ligands were mixed with truncated CRBN (319-427) to a final volume of 25 μL in the assay buffer (20 mM sodium phosphate buffer, pH 6.5, with 150 mM sodium chloride). The final concentration of CRBN in all assay will be 5-10 μM with DMSO level at 4%. A control lanes were prepared with only tested ligands without the addition of CRBN, top up with assay buffer to 25 μL. Plates were incubated for 5 minutes and analyzed using the monochromator plate reader.
IC50 is the compound concentration that causes 50% quenching of the desired activity.

Some results are limits rather than exact numbers.

Chain of truncated CRBN (319-427) (Q96SW2 319-427): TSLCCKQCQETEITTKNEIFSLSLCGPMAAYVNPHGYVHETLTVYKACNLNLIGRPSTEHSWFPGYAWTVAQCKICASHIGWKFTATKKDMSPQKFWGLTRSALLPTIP

Consider `O=C1Cc2ccc(-c3ccncc3)cc2N1` [Compound 002, 6-(pyridin-4-yl)indolin-2-one], for which the concentration for half-maximal inhibition (IC50) (as a rule, the concentration needed to halve the response being measured) is 100 to 300 µM. `O=C1Cc2ccc(-c3cccnc3)cc2N1` [Compound 003, 6-(pyridin-3-yl)indolin-2-one]: the IC50 was over 300 µM. Under `O=C1Cc2ccc(-c3ccccn3)cc2N1` [Compound 004, 6-(pyridin-2-yl)indolin-2-one] stands 100 to 300 µM; under `Cc1cc(-c2ccc3c(c2)NC(=O)C3)ccn1` [Compound 005, 6-(2-methylpyridin-4-yl)indolin-2-one], 100 to 300 µM; under `Cc1cnccc1-c1ccc2c(c1)NC(=O)C2` [Compound 006, 6-(3-methylpyridin-4-yl)indolin-2-one], over 300 µM.

On to `CC1C(=O)Nc2cc(-c3ccncc3)ccc21` (stereo not drawn) [Compound 007, 3-methyl-6-(pyridin-4-yl)indolin-2-one], for which the IC50 is 100 to 300 µM. Under `CN1C(=O)Cc2ccc(-c3ccncc3)cc21` [Compound 008, 1-methyl-6-(pyridin-4-yl)indolin-2-one] stands over 300 µM; under `O=C1Cc2ccc(-c3ccnc(Cl)c3)cc2N1` [Compound 009, 6-(2-chloropyridin-4-yl)indolin-2-one], over 300 µM.

Turning to `COc1cc(-c2ccc3c(c2)NC(=O)C3)ccn1` [Compound 010, 6-(2-methoxypyridin-4-yl)indolin-2-one], the half-inhibitory concentration (IC50) was in the range of 100 to 300 µM. `CCOC(=O)c1cc(-c2ccc3c(c2)NC(=O)C3)ccn1` [Compound 014, ethyl 4-(2-oxoindolin-6-yl)picolinate]: the IC50 lay within 100 to 300 µM. `Cn1cc(-c2ccc3c(c2)NC(=O)C3)cn1` [Compound 015, 6-(1-methyl-1H-pyrazol-4-yl)indolin-2-one]: the IC50 is over 300 µM.

`O=C1Cc2ccc(-c3ccc4[nH]ccc4c3)cc2N1` [Compound 016, 6-(1H-indol-5-yl)indolin-2-one] displayed an IC50 of over 300 µM.

`O=C1Cc2ccc(-c3cnc4[nH]ccc4c3)cc2N1` [Compound 017, 6-(1H-pyrrolo[2,3-b]pyridin-5-yl)indolin-2-one]: the IC50 is over 300 µM. Regarding `O=C1Cc2ccc(-c3ccc(CN4CCNCC4)cc3)cc2N1` [Compound 018, 6-(4-(piperazin-1-ylmethyl)phenyl)indolin-2-one], the IC50 was in the range of 1 to 100 µM.

In the case of `O=C1Cc2ccc(-c3cccc(CN4CCNCC4)c3)cc2N1` [Compound 019, 6-(3-(piperazin-1-ylmethyl)phenyl)indolin-2-one], the IC50 is over 300 µM. As for `O=C1Cc2ccc(-c3ccc(C(=O)N4CCNCC4)cc3)cc2N1` [Compound 020, 6-(4-(piperazine-1-carbonyl)phenyl)indolin-2-one], the IC50 was over 300 µM.

As to `O=C1Cc2ccc(-c3cccc(C(=O)N4CCNCC4)c3)cc2N1` [Compound 021, 6-(3-(piperazine-1-carbonyl)phenyl)indolin-2-one], the IC50 is over 300 µM.

For `CNC(=O)c1ccc(-c2ccc3c(c2)NC(=O)C3)cc1` [Compound 022, N-methyl-4-(2-oxoindolin-6-yl)benzamide], the IC50 fell in the range of 1 to 100 µM. In the case of `CNC(=O)c1cccc(-c2ccc3c(c2)NC(=O)C3)c1` [Compound 023, N-methyl-3-(2-oxoindolin-6-yl)benzamide] it was 1 to 100 µM; in that of `O=C1Cc2ccc(C(=O)Nc3ccccc3)cc2N1` [Compound 024, 2-oxo-N-phenylindoline-6-carboxamide], over 300 µM. Under `O=C1Cc2ccc(C(=O)NC3CCCCC3)cc2N1` [Compound 025, N-cyclohexyl-2-oxoindoline-6-carboxamide] stands over 300 µM; under `CN1CCC(NC(=O)c2ccc3c(c2)NC(=O)C3)CC1` [Compound 027, N-(1-methylpiperidin-4-yl)-2-oxoindoline-6-carboxamide], over 300 µM; under `CN1CCN(CCNC(=O)c2ccc3c(c2)NC(=O)C3)CC1` [Compound 028], over 300 µM. Under `O=C1Cc2ccc(C(=O)N3CCCCC3)cc2N1` [Compound 029, 6-(piperidine-1-carbonyl)indolin-2-one] stands over 300 µM.

The record behind these values is US11542274B1, “Therapeutic compounds and methods of use thereof” (AGENCY FOR SCIENCE, TECHNOLOGY AND RESEARCH (A*STAR), priority 2019, dated 2023).
